# Calls of active or inactive are those of the source. The rule behind the calls is not given here. Where a SMILES comes first, the peptide text is derived from it. [ ]: non-standard residue; d: D form. Phe(4-NO2) = N[C@@H](Cc1ccc([N+](=O)[O-])cc1)C(=O)O; Bip = N[C@@H](Cc1ccc(-c2ccccc2)cc1)C(=O)O; Phe(4-NH2) = Nc1ccc(C[C@H](N)C(=O)O)cc1; Phe(4-F) = N[C@@H](Cc1ccc(F)cc1)C(=O)O; 1Nal = N[C@@H](Cc1cccc2ccccc12)C(=O)O; 2Nal = N[C@@H](Cc1ccc2ccccc2c1)C(=O)O; Dmt = Cc1cc(O)cc(C)c1C[C@H](N)C(=O)O; hPhe = N[C@@H](CCc1ccccc1)C(=O)O; Phg = N[C@H](C(=O)O)c1ccccc1; Dab = NCC[C@H](N)C(=O)O; Abu = CC[C@H](N)C(=O)O; Dap = NC[C@H](N)C(=O)O
# Assays:
# [1] = target: T1, Mu-type opioid receptor (Homo sapiens, UniProt P35372); test: Agonist activity at human mu opioid receptor expressed in CHO cells assessed as stimulation of calcium mobilization by Fluo-4 AM dye based analysis
# T1 sequence (P35372 whole entry): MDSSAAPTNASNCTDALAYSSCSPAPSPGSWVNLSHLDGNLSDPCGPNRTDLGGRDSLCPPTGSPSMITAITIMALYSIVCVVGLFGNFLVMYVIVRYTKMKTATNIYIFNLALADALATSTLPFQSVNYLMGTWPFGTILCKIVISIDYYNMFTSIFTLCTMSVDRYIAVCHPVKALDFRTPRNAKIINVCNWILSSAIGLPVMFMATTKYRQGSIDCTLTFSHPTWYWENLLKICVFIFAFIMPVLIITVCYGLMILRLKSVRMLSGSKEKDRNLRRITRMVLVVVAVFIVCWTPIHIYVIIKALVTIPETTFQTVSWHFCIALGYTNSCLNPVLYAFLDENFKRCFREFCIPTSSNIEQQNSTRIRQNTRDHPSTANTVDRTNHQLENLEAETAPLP
# [2] = target: T2, Nociceptin receptor (Homo sapiens, UniProt P41146); test: Agonist activity at human NOP receptor expressed in CHO cells assessed as stimulation of calcium mobilization by Fluo-4 AM dye based analysis
# T2 sequence (P41146 whole entry): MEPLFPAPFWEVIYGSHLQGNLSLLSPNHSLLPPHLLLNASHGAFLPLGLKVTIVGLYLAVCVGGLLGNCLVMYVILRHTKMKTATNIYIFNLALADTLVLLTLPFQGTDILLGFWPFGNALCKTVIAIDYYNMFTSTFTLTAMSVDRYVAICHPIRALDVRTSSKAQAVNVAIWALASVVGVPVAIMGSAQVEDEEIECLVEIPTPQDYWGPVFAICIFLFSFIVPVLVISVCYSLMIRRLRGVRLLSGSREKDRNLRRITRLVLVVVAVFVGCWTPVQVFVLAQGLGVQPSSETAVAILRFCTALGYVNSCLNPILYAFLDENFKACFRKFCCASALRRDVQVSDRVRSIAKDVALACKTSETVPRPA
# [3] = system: CHO; test: Concentration ratio of human NOP receptor expressed in CHO cells to human mu opioid receptor expressed in CHO cells; type: cell-based
# [4] = target: T1, Mu-type opioid receptor; details: CHO
# [5] = target: T1, Mu-type opioid receptor; test: Agonist activity at human mu opioid receptor expressed in CHO cells assessed as stimulation of calcium mobilization by measuring concentration relative curve at 10 uM by Fluo-4 AM dye based analysis; type: functional, cell-based
# [6] = system: Cavia porcellus; test: Anti-tussive activity in citric acid-induced guniea pig cough model coadministered with citric acid; type: functional, organism-based
# [7] = target: T1, Mu-type opioid receptor; test: Agonist activity at human mu opioid receptor expressed in CHO cells assessed as dynamic mass redistribution by DMR assay; type: functional, cell-based
# [8] = target: Kappa-type opioid receptor (Homo sapiens, UniProt P41145); test: Agonist activity at human kappa opioid receptor expressed in CHO cells assessed as stimulation of calcium mobilization by Fluo-4 AM dye based analysis; type: functional, cell-based
# Chain of Kappa-type opioid receptor (P41145 whole entry): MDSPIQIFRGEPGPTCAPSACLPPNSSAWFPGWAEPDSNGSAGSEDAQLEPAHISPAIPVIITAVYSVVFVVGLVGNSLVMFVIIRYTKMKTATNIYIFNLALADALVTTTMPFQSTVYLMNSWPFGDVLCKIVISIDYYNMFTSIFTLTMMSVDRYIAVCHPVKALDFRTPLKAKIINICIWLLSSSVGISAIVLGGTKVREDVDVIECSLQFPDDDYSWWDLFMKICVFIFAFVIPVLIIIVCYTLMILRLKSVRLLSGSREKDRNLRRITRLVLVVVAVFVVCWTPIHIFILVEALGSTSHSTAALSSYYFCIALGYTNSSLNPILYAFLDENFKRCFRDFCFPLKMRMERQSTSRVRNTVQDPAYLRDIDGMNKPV
# [9] = target: T1, Mu-type opioid receptor; test: Agonist activity at human mu opioid receptor expressed in CHO cells assessed as dynamic mass redistribution by DMR assay relative to control; type: functional, cell-based; details: filed as agonist
# [10] = target: T2, Nociceptin receptor
# Description: Agonist activity at human NOP receptor expressed in CHO cells assessed as dynamic mass redistribution by DMR assay
# [11] = organism: Cavia porcellus; test: Anti-tussive activity in citric acid-induced guniea pig cough model assessed as reduction in cough number co- treated with nebulizer; type: functional, organism-based; details: time 30.0 min
Molecule,EC50 [1],EC50 [2],Ratio [3],pEC50 [5],further results
Cc1cc(O)cc(C)c1C[C@H](N)C(=O)NCC(=O)NCC(=O)N[C@@H](Cc1ccccc1)C(=O)N[C@H](C(=O)NCC(=O)N[C@@H](C)C(=O)N[C@@H](CCCNC(=N)N)C(=O)N[C@@H](CCCCN)C(=O)N[C@@H](CO)C(=O)N[C@@H](C)C(=O)N[C@@H](CCCNC(=N)N)C(=O)N[C@@H](CCCCN)C(N)=O)[C@@H](C)O,42.7 nM,2.69 nM,0.06,–,–
C[C@H](NC(=O)CNC(=O)[C@@H](NC(=O)[C@H](Cc1ccccc1)NC(=O)CNC(=O)CNC(=O)[C@@H](N)Cc1ccccc1)[C@@H](C)O)C(=O)N[C@@H](CCCNC(=N)N)C(=O)N[C@@H](CCCCN)C(=O)N[C@@H](CO)C(=O)N[C@@H](C)C(=O)N[C@@H](CCCNC(=N)N)C(=O)N[C@@H](CCCCN)C(N)=O,–,–,–,–,pEC50 [4]: inactive
COc1ccc(C[C@H](NC(=O)[C@H](Cc2ccccc2)NC(=O)CNC(=O)CNC(=O)[C@@H](N)Cc2ccc(O)cc2)C(=O)NCC(=O)N[C@@H](C)C(=O)N[C@@H](CCCNC(=N)N)C(=O)N[C@@H](CCCCN)C(=O)N[C@@H](CO)C(=O)N[C@@H](C)C(=O)N[C@@H](CCCNC(=N)N)C(=O)N[C@@H](CCCCN)C(N)=O)cc1 (H-YGGFY(Me)GARKSARK-NH2),–,13.2 nM,0.02,inactive,–
C[C@H](NC(=O)CNC(=O)[C@H](Cc1ccc2ccccc2c1)NC(=O)[C@H](Cc1ccccc1)NC(=O)CNC(=O)CNC(=O)[C@@H](N)Cc1ccc(O)cc1)C(=O)N[C@@H](CCCNC(=N)N)C(=O)N[C@@H](CCCCN)C(=O)N[C@@H](CO)C(=O)N[C@@H](C)C(=O)N[C@@H](CCCNC(=N)N)C(=O)N[C@@H](CCCCN)C(N)=O (H-YGGF[2Nal]GARKSARK-NH2),–,–,–,inactive,–
CC[C@H](NC(=O)[C@H](Cc1ccccc1)NC(=O)CNC(=O)CNC(=O)[C@@H](N)Cc1ccc(O)cc1)C(=O)NCC(=O)N[C@@H](C)C(=O)N[C@@H](CCCNC(=N)N)C(=O)N[C@@H](CCCCN)C(=O)N[C@@H](CO)C(=O)N[C@@H](C)C(=O)N[C@@H](CCCNC(=N)N)C(=O)N[C@@H](CCCCN)C(N)=O (H-YGGF[Abu]GARKSARK-NH2),–,–,–,inactive,–
C[C@H](NC(=O)CNC(=O)[C@H](Cc1ccc(-c2ccccc2)cc1)NC(=O)[C@H](Cc1ccccc1)NC(=O)CNC(=O)CNC(=O)[C@@H](N)Cc1ccc(O)cc1)C(=O)N[C@@H](CCCNC(=N)N)C(=O)N[C@@H](CCCCN)C(=O)N[C@@H](CO)C(=O)N[C@@H](C)C(=O)N[C@@H](CCCNC(=N)N)C(=O)N[C@@H](CCCCN)C(N)=O (H-YGGF[Bip]GARKSARK-NH2),–,–,–,inactive,–
C[C@H](NC(=O)CNC(=O)[C@H](CCN)NC(=O)[C@H](Cc1ccccc1)NC(=O)CNC(=O)CNC(=O)[C@@H](N)Cc1ccc(O)cc1)C(=O)N[C@@H](CCCNC(=N)N)C(=O)N[C@@H](CCCCN)C(=O)N[C@@H](CO)C(=O)N[C@@H](C)C(=O)N[C@@H](CCCNC(=N)N)C(=O)N[C@@H](CCCCN)C(N)=O (H-YGGF[Dab]GARKSARK-NH2),–,–,–,inactive,–
C[C@H](NC(=O)CNC(=O)[C@H](CN)NC(=O)[C@H](Cc1ccccc1)NC(=O)CNC(=O)CNC(=O)[C@@H](N)Cc1ccc(O)cc1)C(=O)N[C@@H](CCCNC(=N)N)C(=O)N[C@@H](CCCCN)C(=O)N[C@@H](CO)C(=O)N[C@@H](C)C(=O)N[C@@H](CCCNC(=N)N)C(=O)N[C@@H](CCCCN)C(N)=O (H-YGGF[Dap]GARKSARK-NH2),–,–,–,inactive,–
Cc1cc(O)cc(C)c1C[C@H](NC(=O)[C@H](Cc1ccccc1)NC(=O)CNC(=O)CNC(=O)[C@@H](N)Cc1ccc(O)cc1)C(=O)NCC(=O)N[C@@H](C)C(=O)N[C@@H](CCCNC(=N)N)C(=O)N[C@@H](CCCCN)C(=O)N[C@@H](CO)C(=O)N[C@@H](C)C(=O)N[C@@H](CCCNC(=N)N)C(=O)N[C@@H](CCCCN)C(N)=O (H-YGGF[Dmt]GARKSARK-NH2),195 nM,17.8 nM,0.09,–,–
C[C@H](NC(=O)CNC(=O)[C@H](Cc1ccc(F)cc1)NC(=O)[C@H](Cc1ccccc1)NC(=O)CNC(=O)CNC(=O)[C@@H](N)Cc1ccc(O)cc1)C(=O)N[C@@H](CCCNC(=N)N)C(=O)N[C@@H](CCCCN)C(=O)N[C@@H](CO)C(=O)N[C@@H](C)C(=O)N[C@@H](CCCNC(=N)N)C(=O)N[C@@H](CCCCN)C(N)=O (H-YGGF[Phe(4-F)]GARKSARK-NH2),–,49 nM,0.06,inactive,–
C[C@H](NC(=O)CNC(=O)[C@H](Cc1ccc(N)cc1)NC(=O)[C@H](Cc1ccccc1)NC(=O)CNC(=O)CNC(=O)[C@@H](N)Cc1ccc(O)cc1)C(=O)N[C@@H](CCCNC(=N)N)C(=O)N[C@@H](CCCCN)C(=O)N[C@@H](CO)C(=O)N[C@@H](C)C(=O)N[C@@H](CCCNC(=N)N)C(=O)N[C@@H](CCCCN)C(N)=O (H-YGGF[Phe(4-NH2)]GARKSARK-NH2),372 nM,30.2 nM,0.08,–,–
C[C@H](NC(=O)CNC(=O)[C@H](Cc1ccc([N+](=O)[O-])cc1)NC(=O)[C@H](Cc1ccccc1)NC(=O)CNC(=O)CNC(=O)[C@@H](N)Cc1ccc(O)cc1)C(=O)N[C@@H](CCCNC(=N)N)C(=O)N[C@@H](CCCCN)C(=O)N[C@@H](CO)C(=O)N[C@@H](C)C(=O)N[C@@H](CCCNC(=N)N)C(=O)N[C@@H](CCCCN)C(N)=O (H-YGGF[Phe(4-NO2)]GARKSARK-NH2),–,49 nM,0.06,inactive,–
C[C@H](NC(=O)CNC(=O)[C@H](CCc1ccccc1)NC(=O)[C@H](Cc1ccccc1)NC(=O)CNC(=O)CNC(=O)[C@@H](N)Cc1ccc(O)cc1)C(=O)N[C@@H](CCCNC(=N)N)C(=O)N[C@@H](CCCCN)C(=O)N[C@@H](CO)C(=O)N[C@@H](C)C(=O)N[C@@H](CCCNC(=N)N)C(=O)N[C@@H](CCCCN)C(N)=O (H-YGGF[hPhe]GARKSARK-NH2),–,–,–,inactive,–
Cc1cc(O)cc(C)c1C[C@H](N)C(=O)NCC(=O)NCC(=O)N[C@@H](Cc1ccccc1)C(=O)N[C@@H](Cc1ccccc1)C(=O)NCC(=O)N[C@@H](C)C(=O)N[C@@H](CCCNC(=N)N)C(=O)N[C@@H](CCCCN)C(=O)N[C@@H](CO)C(=O)N[C@@H](C)C(=O)N[C@@H](CCCNC(=N)N)C(=O)N[C@@H](CCCCN)C(N)=O (H-[Dmt]GGFFGARKSARK-NH2),6.46 nM,56.2 nM,8.71,–,–
Cc1cc(O)cc(C)c1C[C@H](N)C(=O)NCC(=O)NCC(=O)N[C@@H](Cc1ccccc1)C(=O)N[C@@H](Cc1ccc(O)cc1)C(=O)NCC(=O)N[C@@H](C)C(=O)N[C@@H](CCCNC(=N)N)C(=O)N[C@@H](CCCCN)C(=O)N[C@@H](CO)C(=O)N[C@@H](C)C(=O)N[C@@H](CCCNC(=N)N)C(=O)N[C@@H](CCCCN)C(N)=O (H-[Dmt]GGFYGARKSARK-NH2),15.5 nM,123 nM,7.94,–,–
Cc1cc(O)cc(C)c1C[C@H](N)C(=O)NCC(=O)NCC(=O)N[C@@H](Cc1ccccc1)C(=O)N[C@@H](Cc1cccc2ccccc12)C(=O)NCC(=O)N[C@@H](C)C(=O)N[C@@H](CCCNC(=N)N)C(=O)N[C@@H](CCCCN)C(=O)N[C@@H](CO)C(=O)N[C@@H](C)C(=O)N[C@@H](CCCNC(=N)N)C(=O)N[C@@H](CCCCN)C(N)=O (H-[Dmt]GGF[1Nal]GARKSARK-NH2),15.8 nM,60.3 nM,3.8,–,–
Cc1cc(O)cc(C)c1C[C@H](NC(=O)[C@H](Cc1ccccc1)NC(=O)CNC(=O)CNC(=O)[C@@H](N)Cc1c(C)cc(O)cc1C)C(=O)NCC(=O)N[C@@H](C)C(=O)N[C@@H](CCCNC(=N)N)C(=O)N[C@@H](CCCCN)C(=O)N[C@@H](CO)C(=O)N[C@@H](C)C(=O)N[C@@H](CCCNC(=N)N)C(=O)N[C@@H](CCCCN)C(N)=O (H-[Dmt]GGF[Dmt]GARKSARK-NH2),8.32 nM,4.07 nM,0.49,–,Activity [6]: inactive; EC50 [7]: 2.29 nM; EC50 [8]: 3.24 nM; Emax [9]: 202%; EC50 [10]: 19.5 nM; Activity [11]: Active
Cc1cc(O)cc(C)c1C[C@H](N)C(=O)NCC(=O)NCC(=O)N[C@@H](Cc1ccccc1)C(=O)N[C@@H](Cc1ccc(N)cc1)C(=O)NCC(=O)N[C@@H](C)C(=O)N[C@@H](CCCNC(=N)N)C(=O)N[C@@H](CCCCN)C(=O)N[C@@H](CO)C(=O)N[C@@H](C)C(=O)N[C@@H](CCCNC(=N)N)C(=O)N[C@@H](CCCCN)C(N)=O (H-[Dmt]GGF[Phe(4-NH2)]GARKSARK-NH2),15.1 nM,26.3 nM,1.73,–,–
Cc1cc(O)cc(C)c1C[C@H](N)C(=O)NCC(=O)NCC(=O)N[C@@H](Cc1ccccc1)C(=O)N[C@H](C(=O)NCC(=O)N[C@@H](C)C(=O)N[C@@H](CCCNC(=N)N)C(=O)N[C@@H](CCCCN)C(=O)N[C@@H](CO)C(=O)N[C@@H](C)C(=O)N[C@@H](CCCNC(=N)N)C(=O)N[C@@H](CCCCN)C(N)=O)c1ccccc1 (H-[Dmt]GGF[Phg]GARKSARK-NH2),2.88 nM,112 nM,39,–,–
H-YGGFHGARKSARK-NH2,–,–,–,inactive,–
H-YGGFK(Ac)GARKSARK-NH2,–,–,–,inactive,–
H-YGGFKGARKSARK-NH2,–,–,–,inactive,–
H-YGGFNGARKSARK-NH2,–,–,–,inactive,–
H-YGGFTGARKSARK-NH2,–,–,< 0.001,inactive,–
H-YGGFVGARKSARK-NH2,–,–,–,inactive,–
H-YGGFWGARKSARK-NH2,–,–,–,inactive,–

# — ChEMBL document CHEMBL5032494, “Novel Mixed NOP/Opioid Receptor Peptide Agonists” (J Med Chem, 2021)
